pIC50: −log10 of the molar value.
Tests used:
[1] = molecular target: Glutaminyl-peptide cyclotransferase (Homo sapiens, UniProt Q16769); assay: Inhibition of glutaminyl cyclase (unknown origin)
[2] = molecular target: Glycogen synthase kinase-3 beta (Homo sapiens, UniProt P49841); assay: Inhibition of GSK-3beta (unknown origin)
Chain of Glycogen synthase kinase-3 beta (P49841 whole entry): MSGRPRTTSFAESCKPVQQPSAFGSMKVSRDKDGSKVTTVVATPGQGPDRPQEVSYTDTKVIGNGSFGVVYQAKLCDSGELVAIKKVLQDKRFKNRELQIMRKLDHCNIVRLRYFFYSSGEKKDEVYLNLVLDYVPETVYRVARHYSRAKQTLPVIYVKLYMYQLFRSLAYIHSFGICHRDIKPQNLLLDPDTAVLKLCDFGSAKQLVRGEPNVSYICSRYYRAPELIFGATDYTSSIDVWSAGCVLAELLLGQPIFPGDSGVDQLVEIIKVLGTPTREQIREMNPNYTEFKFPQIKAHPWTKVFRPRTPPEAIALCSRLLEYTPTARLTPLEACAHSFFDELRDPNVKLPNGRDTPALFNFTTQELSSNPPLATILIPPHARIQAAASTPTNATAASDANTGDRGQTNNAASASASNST

Chain of Glutaminyl-peptide cyclotransferase (Q16769 whole entry): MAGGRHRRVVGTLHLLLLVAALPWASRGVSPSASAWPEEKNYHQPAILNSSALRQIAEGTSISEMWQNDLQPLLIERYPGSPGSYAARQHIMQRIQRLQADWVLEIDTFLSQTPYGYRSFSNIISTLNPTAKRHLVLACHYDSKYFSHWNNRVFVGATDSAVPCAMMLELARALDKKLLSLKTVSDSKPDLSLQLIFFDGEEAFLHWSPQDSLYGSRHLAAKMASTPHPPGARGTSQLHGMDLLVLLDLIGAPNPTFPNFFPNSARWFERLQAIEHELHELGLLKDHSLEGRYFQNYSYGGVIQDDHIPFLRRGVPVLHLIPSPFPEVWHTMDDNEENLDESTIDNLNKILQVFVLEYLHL

SMILES | pIC50 [1] | pIC50 [2]
Cc1cncn1CCCn1cc(C2=C(c3ccccc3F)C(=O)NC2=O)c2ccccc21 | 5.56 | 7.54
COc1cccc(C2=C(c3cn(CCCn4cncc4C)c4ccccc34)C(=O)NC2=O)c1 | 5.20 | 7.26
Cc1cncn1CCCn1cc(C2=C(c3ccc(OCCCn4ccnc4)cc3)C(=O)NC2=O)c2ccccc21 | 4.82 | 6.98
Cc1cncn1CCCn1cc(C2=C(c3ccc(OCCCN4CCCCC4)cc3)C(=O)NC2=O)c2ccccc21 | 5.95 | 7.06
Cc1ccccc1C1=C(c2cn(CCCn3cncc3C)c3ccccc23)C(=O)NC1=O | 5.75 | 7.23
Cc1cncn1CCCn1cc(C2=C(c3ccc(OCCCCc4ccccc4)cc3)C(=O)NC2=O)c2ccccc21 | 5.16 | 6.72
Cc1cncn1CCCn1cc(C2=C(c3cc(F)c(F)cc3F)C(=O)NC2=O)c2ccccc21 | 5.59 | 6.91
COc1cc(C2=C(c3cn(CCCn4cncc4C)c4ccccc34)C(=O)NC2=O)ccc1OCCCCc1ccccc1 | 4.58 | 7.04
Cc1cncn1CCCn1cc(C2=C(c3ccc(OCCCCN4CCCC4)cc3)C(=O)NC2=O)c2ccccc21 | 5.97 | 7.03
Cc1cncn1CCCn1cc(C2=C(c3ccc(OCCCCN4CCN(C)CC4)cc3)C(=O)NC2=O)c2ccccc21 | 5.49 | 7.82
Cc1cncn1CCCn1cc(C2=C(c3ccc(OCCCN4CCCC4)cc3)C(=O)NC2=O)c2ccccc21 | 5.41 | 6.79
COc1cc(C2=C(c3cn(CCCn4cncc4C)c4ccccc34)C(=O)NC2=O)ccc1OCCCc1ccccc1 | 4.74 | 6.75
Cc1cncn1CCCn1cc(C2=C(c3ccccc3)C(=O)NC2=O)c2ccccc21 | 5.64 | 7.85
CCCOc1ccc(C2=C(c3cn(CCCn4cncc4C)c4ccccc34)C(=O)NC2=O)cc1 | 4.70 | 6.82
COc1ccccc1C1=C(c2cn(CCCn3cncc3C)c3ccccc23)C(=O)NC1=O | 5.77 | 7.64
Cc1cncn1CCCn1cc(C2=C(c3ccc(OCCCCn4ccnc4)cc3)C(=O)NC2=O)c2ccccc21 | 4.95 | 6.88
Cc1cncn1CCCn1cc(C2=C(c3ccc(OCCCN4CCN(c5ccccc5)CC4)cc3)C(=O)NC2=O)c2ccccc21 | 5.02 | 6.71
COc1ccc(C2=C(c3cn(CCCn4cncc4C)c4ccccc34)C(=O)NC2=O)cc1OC | 5.34 | 7.44

SMILES | pIC50 [1] | pIC50 [2]
Cc1cncn1CCCn1cc(C2=C(c3ccc(OCCCCN4CCOCC4)cc3)C(=O)NC2=O)c2ccccc21 | 5.66 | 7.24
COc1cc(C2=C(c3cn(CCCn4cncc4C)c4ccccc34)C(=O)NC2=O)ccc1OCCCN1CCCCC1 | 5.95 | 7.29
Cc1cncn1CCCn1cc(C2=C(c3ccc(OCCCN4CCOCC4)cc3)C(=O)NC2=O)c2ccccc21 | 5.82 | 6.75
Cc1cncn1CCCn1cc(C2=C(c3cccc([N+](=O)[O-])c3)C(=O)NC2=O)c2ccccc21 | 5.21 | 7.33
COc1cc(C2=C(c3cn(CCCn4cncc4C)c4ccccc34)C(=O)NC2=O)ccc1OCCCCN1CCOCC1 | 4.89 | 7.23
Cc1cncn1CCCn1cc(C2=C(c3ccc(OCCCCN4CCCCC4)cc3)C(=O)NC2=O)c2ccccc21 | 5.66 | 7.17
Cc1cncn1CCCn1cc(C2=C(c3ccc([N+](=O)[O-])cc3)C(=O)NC2=O)c2ccccc21 | 5.72 | 6.79
Cc1cccc(C2=C(c3cn(CCCn4cncc4C)c4ccccc34)C(=O)NC2=O)c1 | 5.21 | 6.99
Cc1cncn1CCCn1cc(C2=C(c3ccccc3[N+](=O)[O-])C(=O)NC2=O)c2ccccc21 | 5.91 | 8.70
Cc1cncn1CCCn1cc(C2=C(c3ccc(F)cc3)C(=O)NC2=O)c2ccccc21 | 5.49 | 6.99
COc1cc(C2=C(c3cn(CCCn4cncc4C)c4ccccc34)C(=O)NC2=O)ccc1OCCCCN1CCCCC1 | 6.08 | 7.19
Cc1cncn1CCCn1cc(C2=C(c3ccc(OCCCc4ccccc4)cc3)C(=O)NC2=O)c2ccccc21 | 5.10 | 6.74
COc1cc(C2=C(c3cn(CCCn4cncc4C)c4ccccc34)C(=O)NC2=O)ccc1OCCCN1CCOCC1 | 5.15 | 7.05
Cc1cncn1CCCn1cc(C2=C(c3ccc(OCCCCN4CCN(c5ccccc5)CC4)cc3)C(=O)NC2=O)c2ccccc21 | 5.12 | 6.70
Cc1cncn1CCCn1cc(C2=C(c3ccc(OCCCN4CCN(C)CC4)cc3)C(=O)NC2=O)c2ccccc21 | 5.89 | 7.13
Cc1cncn1CCCn1cc(C2=C(c3cccc(F)c3)C(=O)NC2=O)c2ccccc21 | 4.97 | 7.19
CCCCOc1ccc(C2=C(c3cn(CCCn4cncc4C)c4ccccc34)C(=O)NC2=O)cc1 | 4.99 | 7.28
